Columns and labels:
[1] = tested on: female Lewis rats with SCW-induced arthritis; assay: Efficacy in rats with SCW-induced arthritis (ankle thickness, clinical scores); type: in vivo, rat; settings: 5, 20, 50 mg/kg BID oral, Day 18-26
Source text: A polyarthritis can be induced in female Lewis rats following i.p. administration of streptococcal cell wall (SCW) […] (PG-PS) (J Exp Med 1977; 146:1585-1602). The model has an acute phase (days 3-7) that is complement and neutrophil-dependent and that resolves. A chronic erosive phase begins at about day ten and is dependent on the development of specific T cell immunity to the PG-GS, which resists digestion and remains present in synovial macrophages for months. Like rheumatoid arthritis, SCW-induced arthritis is reduced by TNF inhibitors, and the dependence of SCW-induced arthritis on macrophages (Rheumatology; 2001; 40:978-987) and the strong association of rheumatoid arthritis severity with synovial-tissue macrophage counts (Ann Rheum Dis; 2005; 64:834-838) makes SCW-arthritis an attractive model for testing potential therapeutic agents. SCW PG-PS 10S (Beckton Dickinson Cat#210866) suspended in saline was vortexed for 30 seconds and sonicated for 3 min with a probe type sonicator prior to injection. […]
To induce arthritis, Female Lewis (LEW/N) rats, 5-6 weeks of age (80-100 g) were injected (i.p.) with SCW PG-PS as described above. […] Each ankle was measured 3 times and averaged, and treatment groups were randomized based on ankle thickness (Table 6). […]

proMMP9 = target: T1, proMMP9 (Rattus norvegicus, UniProt P50282); assay: Activation of proMMP9 in rat synoviocyte cultures (Western blot); type: cell-based; settings: for Signal of 80 kD band (INT*mm^2): final 48 hrs, TNFα-stimulated, pAb-1246; for 80 kD active MMP9 form detected with mAb L51/82 / 80 kD active MMP9 detected with pAb-1246: 0.37-10 μM; for 80 kD active MMP9 form detected with mAb L51/82: FIG. 1A; for 80 kD active MMP9 detected with pAb-1246: FIG. 1B
T1 construct: endogenous in cells; host or cells: primary synoviocytes from arthritic female Lewis rats
T1 sequence (P50282 20-708 limits assumed): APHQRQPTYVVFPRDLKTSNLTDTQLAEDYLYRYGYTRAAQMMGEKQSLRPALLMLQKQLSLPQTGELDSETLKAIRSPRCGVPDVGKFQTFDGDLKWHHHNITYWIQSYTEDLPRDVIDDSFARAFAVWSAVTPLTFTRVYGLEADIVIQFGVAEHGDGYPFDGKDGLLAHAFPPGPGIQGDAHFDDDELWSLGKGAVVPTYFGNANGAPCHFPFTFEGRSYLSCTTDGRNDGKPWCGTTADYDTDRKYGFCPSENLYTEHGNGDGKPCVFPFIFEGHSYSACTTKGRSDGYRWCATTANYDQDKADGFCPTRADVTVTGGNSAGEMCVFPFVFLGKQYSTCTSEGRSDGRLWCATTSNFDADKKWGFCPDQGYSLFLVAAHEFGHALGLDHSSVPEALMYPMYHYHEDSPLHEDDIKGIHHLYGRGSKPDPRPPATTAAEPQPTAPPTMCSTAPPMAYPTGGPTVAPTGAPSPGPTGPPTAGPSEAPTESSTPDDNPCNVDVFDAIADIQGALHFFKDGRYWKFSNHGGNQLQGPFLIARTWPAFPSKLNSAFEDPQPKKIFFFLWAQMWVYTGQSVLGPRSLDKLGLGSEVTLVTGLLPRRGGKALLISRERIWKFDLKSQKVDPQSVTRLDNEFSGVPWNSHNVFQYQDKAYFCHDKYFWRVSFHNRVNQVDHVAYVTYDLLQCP
Source text: A primary synoviocytes line was derived from the periarticular tissue of arthritic rats. Arthritis was induced in female Lewis rats following an i.p. administration of streptococcal cell wall peptidoglycan polysaccharides (J Exp Med 1977; 146:1585-1602). Rats with established arthritis were sacrificed, and hind-limbs were severed, immersed briefly in 70% ethanol, and placed in a sterile hood. The skin was removed and the inflamed tissue surrounding the tibia-tarsal joint was harvested using a scalpel. Tissue from six rats was pooled, minced to approximately 8 mm^3 pieces, and cultured in Dulbecco's Modified Eagle's Medium (DMEM) containing 15% fetal calf serum (FCS). In the following weeks, cells migrated out of the tissue piece, proliferated, and formed a monolayer of adherent cells. The synoviocytes were lifted from culture plates with 0.05% trypsin and passaged weekly at 1:4 ratios in DMEM containing 10% FCS. Synoviocytes were used at passage 9 to investigate the ability of Compound-α to inhibit the maturation of MMP9 to active form.
Rat synoviocytes spontaneously expressed and activated MMP9 when cultured in collagen gels and stimulated with tumor necrosis factor-alpha (TNFα) (FIG. 1 and Table 3). Eight volumes of an ice-cold solution of 3.8 mg/mL rat tail collagen (Sigma Cat #C3867-1VL) were mixed with 1 volume of 1 M sodium bicarbonate and 1 volume of 10× Roswell Park Memorial Institute medium. The pH of the mixture was adjusted to pH 7 with 1 N sodium hydroxide and equal volumes of the pH-adjusted collagen solution were mixed with DMEM containing 0.8 million synoviocytes per mL. One half mL volumes were dispensed into Costar 24-well culture dishes and placed for one hr at 37° C. and 5% CO2, during which time the collagen solution formed a gel. Individual gels were dislodged into wells of 12-well Costar plates containing 1 mL/well of DMEM adjusted to contain 0.05% BSA and 100 ng/mL mouse TNFα (R&D Systems Cat #410-MT-010). […] After overnight culture at 37° C. and 5% CO2, wells were adjusted to contain an additional 0.5 mL of DMEM containing 0.05% BSA and Compound-α at 4× the final desired concentration (final culture volumes were 2 mL). The plates were cultured an additional 48 hrs, at which time 1 mL of conditioned media were harvested into fresh eppendorf tubes containing 40 μL/mL of a 50% slurry of gelatin-conjugated sepharose (GE Healthcare Cat #17-0956-01). Samples were rotated for 2 hrs at 4° C. before centrifugation 1 min×200 g. Supernatants were discarded. The gelatin-sepharose pellets were washed once with 1 mL of ice cold DMEM, resuspended in 50 μL of 2× reducing Leamli buffer and heated 5 min at 95° C. Fifteen μL of eluted proteins were resolved on 4-12% NuPAGE gels and transferred to 0.45 μm pore-sized nitrocellose blots. Next, blots were incubated in blocking buffer (5% milk in Tris-buffered saline containing 0.1% Tween-20) for 1 hr at RT and probed overnight (4° C.) with blocking buffer containing 1 μg/mL primary antibodies. Blots were next probed 1 hr at RT with 1/10,000 dilutions of goat anti-mouse IgG-HRP or goat anti-rabbit IgG-HRP (Santa Cruz) in blocking buffer and developed using SuperSignal® West Fempto Maximum Sensitivity Substrate. Chemiluminesence signal was analyzed using a ChemiDoc imaging system (BioRad Laboratories) and Quantity One® image software. Electrophoretic mobility was estimated based on the mobility of standards (Novex Sharp Pre-Stained Protein Standards P/N 57318).
Mouse mAb-L51/82 (UC Davis/NIH NeuroMab Facility, Antibody Incorporated) was used to detect pro and processed forms of MMP9. Synoviocyte-conditioned media contained an approximately 80 kD form of MMP9 (FIG. 1A, lane 2). […] The 86 kD form was predominant in the presence of 10 μM Compound-α (FIG. 1A, lane 6). Lane 1 was loaded with a standard containing 3 ng of full-length rat proMMP9(1-708) (SEQ ID NO:11) and 3 ng of full-length rat proMMP9(1-708) (SEQ ID NO:11) converted to catalytic rat MMP9 by catalytic MMP3. […]

- Signal of 80 kD band (INT*mm^2) (proMMP9; 0.37 μM): 74381 INT*mm^2
- Signal of 80 kD band (INT*mm^2) (proMMP9; 1.1 μM): 45381 INT*mm^2
- Signal of 80 kD band (INT*mm^2) (proMMP9; 3.3 μM): 11554 INT*mm^2
- Signal of 80 kD band (INT*mm^2) (proMMP9; 10 μM): 2578 INT*mm^2
- 80 kD active MMP9 form detected with mAb L51/82 (proMMP9): reduced in a dose dependent fashion
- 80 kD active MMP9 detected with pAb-1246 (proMMP9): dose-dependent reduction in active MMP9
Structure (SMILES): Cc1nc(C)c(-c2csc(Nc3cc(S(N)(=O)=O)ccc3OC(C)C)n2)s1 [Compound-α, 3-(2′,4′-Dimethyl-[4,5′]bithiazolyl-2-ylamino)-4-isopropoxy-benzenesulfonamide.HBr]
- Ankle thickness measurements, effect of treatment [1]: dose-dependent decrease in ankle thickness measurements
- Clinical score measurements, effect of treatment [1]: dose dependent decrease in clinical score measurements
- 80 kD active MMP9 form detected with mAb L51/82 (proMMP9; listed as Compound a): dose-dependent reduction in the appearance of the 80 kD active form of MMP9
- 80 kD active MMP9 detected with pAb-1246 (proMMP9; listed as Compound α): dose-dependent reduction in the appearance of the 80 kD active form of MMP9

Source: patent publication US20120129897A1, “BIS HETEROARYL INHIBITORS OF PRO-MATRIX METALLOPROTEINASE ACTIVATION” (priority 2010, published 2012)
